The subject of this data set is orthotopic U251 MG tumor-bearing mice. The data set is described as follows: Autoradiography using C-2d. Format: in vivo, mouse. On the procedure: U251 MG glioblastoma cells (5×10^4 in 2 μL of PBS) were orthotopically implanted in athymic nude mice, using a stereotaxic device, and the tumors allowed to grow for approximately 4 weeks. […] Additionally, healthy mice were also injected with 500 μCi C-2d. After 2 h of circulation time after the C-2d injection, the mice were sacrificed. Liver, tumor, muscle, and brain tissues were excised and embedded in O.C.T. compound (Sakura Finetek, Torrance, Calif.) and frozen at −20° C., and a series of 8 μm frozen sections was cut and mounted on microscope slides. To determine radiotracer distribution, digital autoradiography was performed by placing tissue sections in a film cassette against a phosphor image plate (BASMS-2325; Fujifilm) for 48 h at −20° C. Phosphor imaging plates were read at a pixel resolution of 25 μm with a Typhoon 7000IP plate reader (GE Healthcare, Piscataway, N.J.) (images not shown). After autoradiographic exposure, the same frozen sections were then used for […] staining. Areas of brain slides containing tumor tissue were identified using the H&E staining and then overlaid with the autoradiographic data (images not shown). Intensity of tumor areas and non-tumor areas were then quantified using ImageJ 1.47 u (see FIGS. 5A and 5B).

The mark [1] stands for this setting: autoradiography, mice that received no olaparib.

Experimental findings from patent US10512700B2, “Radiohalide-labeled targeted diagnostics and therapeutics” (Memorial Sloan Kettering Cancer Center, priority 2014, dated 2019) are described below.

In the case of `O=C(c1ccc([131I])cc1)N1CCN(C(=O)c2cc(Cc3n[nH]c(=O)c4ccccc34)ccc2F)CC1` [C-2d (^131I)], under setting [1], the “signal intensity in tumor tissue vs healthy brain tissue” value turned out to be 15.7 fold and the “signal intensity in tumor tissue vs muscle tissue” value was determined as 6.2 fold. Further, the “reduction in intensity of the autoradiography signal in tumor tissue” value (mice treated with olaparib) was determined as 65%. For the same compound, where the note is “with olaparib treatment”, the “autoradiography signal, muscle” value is 248±72 AU and the “autoradiography signal, tumor tissue” value was 536±87 AU. Besides, under “without olaparib treatment”, the “autoradiography signal, muscle” value was determined as 192±20 AU and the “autoradiography signal, tumor tissue” value was 1222±203 AU.
